The text below walks through data of patent publication US20110112056A1, “Use of Carbon-2-Modified-Vitamin D Analogs to Induce the Formation of New Bone” (WISCONSIN ALUMNI RESEARCH FOUNDATION, priority 2002, published 2011).

One assay deals with post-menopausal women. To be noted: cited from earlier work.
In assay [1] the test system is human osteoblast cultures. Briefly: Bone nodule formation in vitro in human osteoblast cultures (Von Kossa stain). To be noted: for formation of mineralized bone by osteoblast cultures (Von Kossa stain, FIG. 2): different concentrations (10^−8 to 10^−12 molar). The assay is classed as cell-based. The text has this: Human bone samples discarded after surgical procedures from patients undergoing hip/knee replacement surgeries are obtained under an approved IRB protocol (Protocol #2001-055) and processed as described below. These bone pieces are otherwise routinely discarded as waste material during surgery.
The bone pieces are thoroughly washed and cleaned under sterile conditions using phosphate-buffered saline (PBS). These pieces are then cut to obtain smaller pieces (1-2 mm^3) and subjected to enzymatic digestion process to isolate osteoblasts as described below.
Osteoblastic cells are obtained from the bone pieces by collagenase digestion. Briefly, the bone samples are washed twice in PBS and dissected in about 1 mm^3 size fragments which are then sequentially digested in trypsin (1 mg/mL) for ten minutes, followed by dispase (2 mg/mL) for twenty minutes, and bacterial collagenase [Collagenase A] (3 mg/mL) twice for thirty minutes in PBS at 37° C. in a water bath. Cells released by collagenase digestion are then washed, counted and grown to sub-confluence in 25 cm^2 cell culture flasks in 1:1 Ham's F12/Dulbecco's modification of Eagle's medium (DMEM) supplemented with 10% fetal bovine serum. Cells are cultured at 37° C. in a humidified atmosphere of 5% CO2/95% air. Medium changes are made every 2-3 days and cells are cultured until they are 80% confluent. Cells are then trypsinized, washed and frozen from early passages for evaluation using techniques as described below.
In order to evaluate the ability of osteoblasts to form bone nodules in vitro, cells are cultured in 6 well plates at 1-3×10^5 cells/well. Cells are cultured in the presence of either 1,25-(OH)2D3 or vitamin D analogs at various doses for 7 days. Complete medium changes are carried out twice during the 7-day period and the medium is supplemented with fresh compounds (either 1,25-(OH)2D3 or 2-methylene-19-nor-(20S)-1α,25-dihydroxyvitamin D3—2MD) during each medium change. At days 10 and 13, complete medium changes are carried out and the compounds are replaced by treatment with ascorbic acid (50 μg/ml) and β-glycerol phosphate (10 mM). A third dose of ascorbic acid and β-glycerol phosphate is added to the cultures on day 15 if needed. Following the culture period, cells are stained using the Von Kossa technique. Briefly, cells are stained with 5% silver nitrate for 30 minutes in the dark, rinsed with distilled water, reduced with sodium carbonate/formaldehyde solution for 2 minutes and washed under tap water for 10 minutes. The cells are then stained with methyl green pyronin for 20 minutes, washed with water followed by two washes of absolute alcohol. […] Bone nodule formation in vitro can be assessed quantitatively by various published procedures.

The next assay relates to ovariectomized rats. The settings on record: cited from earlier work; for bone mass: ovariectomized animal; for bone strength: ovariectomized rats.

“Also recorded” adds a separate entry of the source. Read-outs that look alike come from different tables or passages of the source.

Take `C=C1/C(=C\C=C2/CCC[C@]3(C)[C@@H]([C@H](C)CCCC(C)(C)O)CC[C@@H]23)C[C@@H](O)C[C@@H]1O` [1,25-(OH)2D3, 1α,25-dihydroxyvitamin D3]: in the assay with post-menopausal women, the bone mass result is “will not appreciably increase the bone mass” and the fracture rate result is given as “will decrease the fracture rate”. Moreover, the “change in osteoblast cultures (photographs, FIG. 1)” value in assay [1] (10^−8 molar, after 14 days of incubation) is reported as “very little change”. Also, the “formation of mineralized bone by osteoblast cultures (Von Kossa stain, FIG. 2)” value in assay [1] is “does not produce this effect; also recorded: minimum effect”.
`CC1C(O)CC(=CC=C2CCC[C@]3(C)[C@@H]([C@@H](C)CCCC(C)(C)O)CC[C@@H]23)CC1O` (stereo partly drawn) [2α-methyl-19-nor-20S-1,25-(OH)2D3, 2α-methyl-19-nor-20(S)-1α,25-dihydroxyvitamin D3]: in the assay with ovariectomized rats, the bone mass entry is given as “increase bone mass” and the bone strength result is “increase bone strength”.
Consider `C=C1[C@H](O)CC(=C/C=C2\CCC[C@]3(C)[C@@H]([C@@H](C)CCCC(C)(C)O)CC[C@@H]23)C[C@H]1O` [2MD, 2-methylene-19-nor-(20S)-1α,25-dihydroxyvitamin D3], for which the “degree of new bone formation” value in assay [1] (10^−12 molar) is recorded as “saturating degree of new bone formation”. Further, the “formation of mineralized bone by osteoblast cultures (Von Kossa stain, FIG. 2)” value in assay [1] is “unique and strong action”. For the same molecule, in the assay with ovariectomized rats, the bone mass result is listed as “markedly stimulate bone mass accumulation” and the bone strength entry is “increase bone strength”. The bone mass result with ovariectomized rats (listed as 2-methylene-19-nor-20S-1,25-(OH)2D3) is given as “increase bone mass”.
